Experimental data taken from publication PMC7055211 (Scientific Reports, 2020).
“Also recorded” adds a separate entry of the source. Read-outs that look alike come from different tables or passages of the source.

Legend:
[1] = WST-1 cellular metabolism measurement for the five prazoles (CC50); assay type: cell-based; details: human, 293 T cells, 50% metabolic activity of control, WST reagent, read-out: Cytotoxicity (CC50)
[2] = Prazole degradation rate: prodrug remaining in pH 5.8 buffer by 1D proton NMR; details: for prodrug remaining at 17 hours: 1D proton NMR
HIV-1 = assay: microbe, parasite or virus in culture; assay type: cell-based; details: for EC50: Human immunodeficiency virus 1, HEK-293T
DENV 2 strain 16681 = assay type: cell-based, Dengue virus type 2
[3] = test system: HIV-1 P7L-Gag (disrupted PTAP motif); assay type: cell-based
MAYV TRVL 15537 = assay type: cell-based, Mayaro virus
EBV = assay type: cell-based, Epstein Barr virus; details: CLIX-FZ; for Virus Production (resistant or susceptible), EBV: BALF5
in vitro [4] = details: human
ZIKV PRVABC59 = assay type: cell-based, Zika virus
in vitro [5] = details: human; remark: listed apart in the source
[6] = test system: Mahoney strain of poliovirus; assay type: cell-based, Poliovirus Type I Mahoney; details: 293 T cells, up to 100 μM, plaque assay
in vitro [7] = details: human; remark: listed apart in the source
Tsg101 UEV domain = target: T1, Tsg101 UEV domain (Homo sapiens, UniProt Q99816); assay: NMR chemical shift perturbations of Tsg101 UEV domain complexed with prazoles; assay type: binding; details: 15N-Tsg101 UEV, pH 5.8, 300 K
T1 construct: purified ^15N-labeled Tsg101 UEV domain protein complexed to various prazoles; made in house
T1 sequence (Q99816 2-145 limits assumed): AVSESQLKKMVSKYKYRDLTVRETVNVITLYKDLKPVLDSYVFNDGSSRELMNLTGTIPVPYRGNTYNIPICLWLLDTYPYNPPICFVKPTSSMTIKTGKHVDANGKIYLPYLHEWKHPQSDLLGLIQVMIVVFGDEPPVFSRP

HIV-1 Gag-HA VLP = assay type: cell-based
EBOV (Zaire) = assay: microbe, parasite or virus in culture; assay type: cell-based, Ebola virus
CLIX-FZ cells = assay: WST-1 metabolic activity of CLIX-FZ cells; assay type: cell-based; details: 40 μM concentration range, WST-1, 24 hr
Protocol: Figure 4 EBV replication is tenatoprazole-sensitive. Latent EBV was reactivated in CLIX-FZ cells by addition of doxycycline in the presence of DMSO (black bars) or DMSO plus tenatoprazole (20 µM or 40 µM, grey bars); non-treated cells are shown as white bars. After 72 hr, cells and conditioned media were harvested. Panel A, extracellular EBV DNA measured in pellet fraction of conditioned media. Panel B, intracellular EBV DNA measured in lysed cells. EBV DNA was determined by quantitative-PCR (qPCR) for the EBV BALF5 gene. EBV DNA copy number from each preparation was normalized to the DMSO-treated control. Panel C, metabolic activity of cells in the presence of tenatoprazole. The cells were grown for 24 hr in media containing the indicated concentrations of doxycycline and tenatoprazole followed by assessment of metabolic activity assessed using the WST-1 assay. Panel D, fractionation of intracellular DNA. […] DNA was extracted from each fraction and the relative number of EBV genomes from each fraction was determined by qPCR using primers directed towards the EBV BALF5 gene. […]
Metabolic activity of the cells in the presence of the prazole drugs for 24 hr was assessed using the WST-1 assay (Roche Applied Science) following the manufacturer's protocol.

[8] = test system: pseudotyped virus using the EBOV Env (G) protein; details: cited from earlier work
[9] = read-out: Approximate Effective Concentration (EC50)
[10] = read-out: EC50, inhibition of HIV-1 production
[11] = doxycycline, 20 µM and 40 μM, 72 hr, qPCR

COc1ccnc(C[S+]([O-])c2nc3ccc(OC(F)F)cc3[nH]2)c1OC (stereo not shown) [Pantoprazole, pantoprazole sodium hydrate]
CC50 at 24 h [1]: 40 µM | prodrug remaining at 17 hours ([2]; 2 mM prazole, 300 K): 96% | inhibition of HIV-1 production (in words) (HIV-1): negligible inhibitory activity | Selectivity Index (CC50/EC50) (HIV-1; HIV-1, Table 3): <0.5 | EC50 (HIV-1; [9]): > 75 µM

Cc1c(OCC(F)(F)F)ccnc1C[S+]([O-])c1nc2ccccc2[nH]1 (stereo not shown) [Lansoprazole, lansoprazole]
CC50 at 24 h [1]: 50 µM | prodrug remaining at 17 hours ([2]; 2 mM prazole, 300 K): 20% | Selectivity Index (CC50/EC50) (HIV-1; HIV-1, Table 3): 2.0 | EC50 (HIV-1; [9]): 25 µM | EC50 (HIV-1; [10]): ~25 µM

COc1ccc2[nH]c([S+]([O-])Cc3ncc(C)c(OC)c3C)nc2n1 (stereo not shown) [Tenatoprazole, tenatoprazole]
DENV replication, tenatoprazole susceptibility (DENV 2 strain 16681): no tenatoprazole susceptibility | Virus Production (resistant or susceptible), DENV (DENV 2 strain 16681; 293 T, infectivity, FFU): Resistant | Alix rescue of P7L-Gag release in presence of tenatoprazole ([3]; 293T, concentration range to which the WT is susceptible): 2–3 fold | Alix-mediated stimulation of p25 to p24 maturation ([3]; in the presence or absence of the drug): ~ 3 fold | Virus Production (resistant or susceptible), MAYV (MAYV TRVL 15537): sensitive; also recorded: Susceptible (2.5) | reduction of MAYV titer (MAYV TRVL 15537): > 2 log10 | Selectivity index (CC50/EC50), MAYV (MAYV TRVL 15537; 293 T): Susceptible (2.5) | Selectivity index (CC50/EC50), EBV (EBV): ~4 | intracellular EBV load (EBV; [11]): increased | number of released (extracellular) EBV particles (EBV; [11]): dose-dependent reduction | Virus Production (resistant or susceptible), EBV (EBV; qPCR): Susceptible | Virus Production (resistant or susceptible), EBV (EBV; qPCR, listed as tenatoprazole): sensitive | viability at 80 µM (in vitro [4]): > 80% | reduction in ZIKV infectious virus output (ZIKV PRVABC59): < 2 fold | Virus Production (resistant or susceptible), ZIKV (ZIKV PRVABC59; 293 T, infectivity, PFU): Resistant | CC50 (in vitro [5]): 129 µM | CC50 at 24 h [1]: 125 µM | PV tenatoprazole susceptibility [6]: no tenatoprazole susceptibility | prodrug remaining at 17 hours ([2]; 2 mM prazole, 300 K): ~ 5% | CC50 (in vitro [7]): 123 µM | chemical shift change of backbone amide of S41 (Tsg101 UEV domain): 0.29 ppm | Gag accumulation in cell lysate (HIV-1 Gag-HA VLP): drug concentration-dependent decline in Gag accumulation | VLP production (HIV-1 Gag-HA VLP): dose-dependent inhibition of VLP production | VLP release efficiency (HIV-1 Gag-HA VLP): no change | Selectivity index (CC50/EC50), EBOV (EBOV (Zaire)): Susceptible (1.6) | EC50 (EBOV (Zaire); Zaire ebolavirus, HeLa, 24 h, read-out: EC50, inhibition of EBOV spread): 80 µM | Virus Production (resistant or susceptible), HIV-1 (HIV-1): sensitive | Selectivity Index (CC50/EC50) (HIV-1; HIV-1, Table 3): 2.5 | EC50 (HIV-1; [9]): 50 µM | EC50 (HIV-1; [10]): ~50 µM | metabolic capacity of host CLIX-FZ cells (CLIX-FZ cells): some impairment of metabolic capacity

COCCCOc1ccnc(C[S+]([O-])c2nc3ccccc3[nH]2)c1C (stereo not shown) [Rabeprazole, rabeprazole sodium]
CC50 at 24 h [1]: 150 µM | time course of prodrug disappearance ([2]; 2 mM prazole, 300 K): completely disappearing in less than ten hours | inhibition of HIV-1 production (in words) (HIV-1): strongest inhibitory effect | Selectivity Index (CC50/EC50) (HIV-1; HIV-1, Table 3): 10 | EC50 (HIV-1; [9]): 15 µM | EC50 (HIV-1; [10]): ~15 µM

Cc1c(OCC(F)(F)F)ccnc1C[S@@+]([O-])c1nc2ccccc2[nH]1 [dexlansoprazole]
conversion rate, dexlansoprazole compared with lansoprazole ([2]; Supplemental Fig. 3A): no significant difference in rates

COc1ccc2nc([S@@+]([O-])Cc3ncc(C)c(OC)c3C)[nH]c2c1 [Esomeprazole, Esomeprazole magnesium hydrate]
EC50 [8]: 50 µM | CC50 at 24 h [1]: 75 µM | prodrug remaining at 17 hours ([2]; 2 mM prazole, 300 K): ~ 55% | inhibitory effect on EBOV (EBOV (Zaire)): no significant inhibitory effect | Selectivity Index (CC50/EC50) (HIV-1): 1.0 | EC50 (HIV-1; [9]): 75 µM | EC50 (HIV-1; [10]): ~75 µM
